Measured values as given in patent US20240158446A1, “CYCLIC COMPOUND HAVING SELECTIVE INHIBITORY ACTION ON KRAS OVER HRAS AND NRAS” (CHUGAI SEIYAKU KABUSHIKI KAISHA, priority 2021, published 2024).

What was measured:
[1] = target: GDP-bound NRAS wild-type protein (Homo sapiens, UniProt P01111); assay: Binding to NRAS by surface plasmon resonance (SPR), Single Cycle Kinetics; settings: SPR, GDP-bound NRAS wild-type protein vs GDP-bound KRAS wild-type protein
[2] = target: GDP-bound HRAS wild-type protein (Homo sapiens, UniProt P01112); assay: Binding to HRAS by surface plasmon resonance (SPR), Single Cycle Kinetics; settings: SPR, GDP-bound HRAS wild-type protein vs GDP-bound KRAS wild-type protein
[3] = target: GDP-bound KRAS wild-type protein (Homo sapiens, UniProt P01116); assay: Binding to KRAS by surface plasmon resonance (SPR), Single Cycle Kinetics; settings: SPR, Single Cycle Kinetics, GDP-bound KRAS wild-type protein; read-out: KRAS KD
GDP-bound KRAS wild-type protein, sequence (P01116 whole entry): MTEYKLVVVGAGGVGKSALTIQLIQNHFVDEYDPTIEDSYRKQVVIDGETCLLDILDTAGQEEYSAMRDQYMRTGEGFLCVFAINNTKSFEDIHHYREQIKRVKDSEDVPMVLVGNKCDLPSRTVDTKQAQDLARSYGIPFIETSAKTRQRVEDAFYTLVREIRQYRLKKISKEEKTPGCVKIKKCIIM

GDP-bound NRAS wild-type protein, sequence (P01111 whole entry): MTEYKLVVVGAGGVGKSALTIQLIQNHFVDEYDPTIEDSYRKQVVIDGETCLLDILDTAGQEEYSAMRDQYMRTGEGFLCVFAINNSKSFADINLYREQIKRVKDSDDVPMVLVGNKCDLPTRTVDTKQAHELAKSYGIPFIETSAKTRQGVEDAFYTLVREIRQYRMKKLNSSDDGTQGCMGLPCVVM
GDP-bound HRAS wild-type protein, sequence (P01112 whole entry): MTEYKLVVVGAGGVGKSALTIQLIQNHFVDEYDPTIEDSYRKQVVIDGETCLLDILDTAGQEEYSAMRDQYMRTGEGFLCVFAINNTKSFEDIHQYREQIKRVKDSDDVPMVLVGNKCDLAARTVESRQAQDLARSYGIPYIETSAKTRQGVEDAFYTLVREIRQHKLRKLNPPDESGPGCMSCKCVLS

Row | Structure (SMILES) | NRAS/KRAS (ratio of KD value for NRAS to KD value for KRAS) [1] | HRAS/KRAS (ratio of KD value for HRAS to KD value for KRAS) [2] | Kd [3]
1 | CCC[C@H]1C(=O)N[C@@H]([C@@H](C)CC)C(=O)N(C)CC(=O)N(C)[C@H]2C/C=C\CCN(C2=O)[C@@H](Cc2ccc(C)cc2)C(=O)N(C)CC(=O)N[C@@H](CCc2ccc(Cl)c(Cl)c2)C(=O)N2C[C@H](OCC)C[C@H]2C(=O)NC2(CC(C)(C)C2)C(=O)N(C)[C@@H](C(CC)CC)C(=O)N(C)[C@H](C(=O)N(C)C)CC(=O)N1C [PP2184] | AA (a compound having 20 or more is denoted as AA) | A (a compound having 10 or more and less than 20 is denoted as A) | 0.7 nM
2 | CCO[C@@H]1C[C@H]2C(=O)NC3(CC(C)(C)C3)C(=O)N(C)[C@@H](C(CC)CC)C(=O)N(C)[C@H](C(=O)N(C)C)CC(=O)N(C)[C@@H](CC(C)C)C(=O)N[C@@H]([C@@H](C)CC)C(=O)N(C)CC(=O)N(C)[C@H]3C/C=C\CCN(C3=O)[C@@H](Cc3ccc(C)cc3)C(=O)N(C)CC(=O)N[C@@H](CCc3ccc(Cl)c(Cl)c3)C(=O)N2C1 [PP2185] | AA (a compound having 20 or more is denoted as AA) | A (a compound having 10 or more and less than 20 is denoted as A) | 0.71 nM
3 | CCO[C@@H]1C[C@H]2C(=O)NC3(CC(C)(C)C3)C(=O)N(C)[C@@H](C(CC)CC)C(=O)N(C)[C@H](C(=O)N(C)C)CC(=O)N(C)[C@@H](C)C(=O)N[C@@H]([C@@H](C)CC)C(=O)N(C)CC(=O)N(C)[C@H]3C/C=C\CCN(C3=O)[C@@H](Cc3ccc(C)cc3)C(=O)N(C)CC(=O)N[C@@H](CCc3ccc(Cl)c(Cl)c3)C(=O)N2C1 [PP2186] | AA (a compound having 20 or more is denoted as AA) | A (a compound having 10 or more and less than 20 is denoted as A) | 2.3 nM
4 | CCO[C@@H]1C[C@H]2C(=O)NC3(CC(C)(C)C3)C(=O)N(C)[C@@H](C(CC)CC)C(=O)N(C)[C@H](C(=O)N3CCCC3)CC(=O)N(C)[C@@H](C)C(=O)N[C@@H]([C@@H](C)CC)C(=O)N(C)CC(=O)N(C)[C@H]3C/C=C\CCN(C3=O)[C@@H](Cc3ccc(C)cc3)C(=O)N(C)CC(=O)N[C@@H](CCc3ccc(Cl)c(Cl)c3)C(=O)N2C1 [PP2187] | AA (a compound having 20 or more is denoted as AA) | A (a compound having 10 or more and less than 20 is denoted as A) | 0.69 nM
5 | CCO[C@@H]1C[C@H]2C(=O)NC3(CC(C)(C)C3)C(=O)N(C)[C@@H](C(CC)CC)C(=O)N(C)[C@H](C(=O)N(C)C)CC(=O)N(C)[C@@H](CC)C(=O)N[C@@H]([C@@H](C)CC)C(=O)N(C)CC(=O)N(C)[C@H]3C/C=C\CCN(C3=O)[C@@H](Cc3ccc(C)cc3)C(=O)N(C)CC(=O)N[C@@H](CCc3ccc(Cl)c(Cl)c3)C(=O)N2C1 [PP2188] | AA (a compound having 20 or more is denoted as AA) | A (a compound having 10 or more and less than 20 is denoted as A) | 0.71 nM
6 | CCO[C@@H]1C[C@H]2C(=O)NC3(CCCC3)C(=O)N(C)[C@@H](C3CCCC3)C(=O)N(C)[C@H](C(=O)N(C)C)CC(=O)N(C)[C@@H](CC(C)C)C(=O)N[C@@H]([C@@H](C)CC)C(=O)N(C)CC(=O)N(C)[C@H]3C/C=C\CCN(C3=O)[C@@H](Cc3ccc(C)cc3)C(=O)N(C)CC(=O)N[C@@H](CCc3ccc(C(F)(F)F)c(Cl)c3)C(=O)N2C1 [PP2195] | A (a compound having 10 or more and less than 20 is denoted as A) | A (a compound having 10 or more and less than 20 is denoted as A) | 0.096 nM
7 | CCC[C@H]1C(=O)N[C@@H](C2CCCC2)C(=O)N(C)CC(=O)N(C)[C@H]2C/C=C\CCN(C2=O)[C@@H](Cc2ccc(C)cc2)C(=O)N(C)CC(=O)N[C@@H](CCc2ccc(C(F)(F)F)c(Cl)c2)C(=O)N2C[C@H](OCC)C[C@H]2C(=O)NC2(CC(C)(C)C2)C(=O)N(C)[C@@H](CC(C)(C)C)C(=O)N(C)[C@H](C(=O)N(C)C)CC(=O)N1C [PP2196] | A (a compound having 10 or more and less than 20 is denoted as A) | B (a compound having 3 or more and less than 10 is denoted as B) | 0.24 nM
8 | CCO[C@@H]1C[C@H]2C(=O)NC3(CCCC3)C(=O)N(C)[C@@H](C3CCCC3)C(=O)N(C)[C@H](C(=O)N(C)C)CC(=O)N(C)[C@@H](CC(C)C)C(=O)N[C@@H]([C@@H](C)CC)C(=O)N(C)CC(=O)N(C)[C@H]3C/C=C\CCN(C3=O)[C@@H](Cc3ccc(C)cc3)C(=O)N(C)CC(=O)N[C@@H](CCc3ccc(C(F)(F)F)c(OC)c3)C(=O)N2C1 [PP2197] | A (a compound having 10 or more and less than 20 is denoted as A) | B (a compound having 3 or more and less than 10 is denoted as B) | 0.15 nM
9 | CCC[C@H]1C(=O)N[C@@H](C2CCCC2)C(=O)N(C)CC(=O)N(C)[C@H]2C/C=C\CCN(C2=O)[C@@H](Cc2ccc(C)cc2)C(=O)N(C)CC(=O)N[C@@H](CCc2ccc(C(F)(F)F)c(Cl)c2)C(=O)N2C[C@H](OCC)C[C@H]2C(=O)NC2(CC(C)(C)C2)C(=O)N(C)[C@@H](C2CCCC2)C(=O)N(C)[C@H](C(=O)N(C)C)CC(=O)N1C [PP2198] | A (a compound having 10 or more and less than 20 is denoted as A) | A (a compound having 10 or more and less than 20 is denoted as A) | 0.21 nM
10 | CCC[C@H]1C(=O)N[C@@H](C(CC)CC)C(=O)N(C)CC(=O)N(C)[C@H]2C/C=C\CCN(C2=O)[C@@H](Cc2ccc(C)cc2)C(=O)N(C)CC(=O)N[C@@H](CCc2ccc(C(F)(F)F)c(Cl)c2)C(=O)N2C[C@H](OCC)C[C@H]2C(=O)NC2(CC(C)(C)C2)C(=O)N(C)[C@@H](CC(C)(C)C)C(=O)N(C)[C@H](C(=O)N(C)C)CC(=O)N1C [PP2207] | A (a compound having 10 or more and less than 20 is denoted as A) | A (a compound having 10 or more and less than 20 is denoted as A) | 0.79 nM
11 | CCC[C@@H]1C[C@H]2C(=O)NC3(CC(C)(C)C3)C(=O)N(C)[C@@H](C3CCCC3)C(=O)N(C)[C@H](C(=O)N(C)C)CC(=O)N(C)[C@@H](CC)C(=O)N[C@@H]([C@@H](C)CC)C(=O)N(C)CC(=O)N(C)[C@H]3C/C=C\CCN(C3=O)[C@@H](Cc3ccc(C)cc3)C(=O)N(C)CC(=O)N[C@@H](CCc3cc(F)c(C(F)(F)F)c(F)c3)C(=O)N2C1 [PP2208] | A (a compound having 10 or more and less than 20 is denoted as A) | A (a compound having 10 or more and less than 20 is denoted as A) | 0.2 nM
12 | CCC[C@H]1C(=O)N[C@@H](C(CC)CC)C(=O)N(C)CC(=O)N(C)[C@H]2C/C=C\CCN(C2=O)[C@@H](Cc2ccc(C)cc2)C(=O)N(C)CC(=O)N[C@@H](CCc2ccc(C(F)(F)F)c(Cl)c2)C(=O)N2C[C@H](OCC)C[C@H]2C(=O)NC2(CC(C)(C)C2)C(=O)N(C)[C@@H](C2CCCC2)C(=O)N(C)[C@H](C(=O)N(C)C)CC(=O)N1C [PP2209] | A (a compound having 10 or more and less than 20 is denoted as A) | A (a compound having 10 or more and less than 20 is denoted as A) | 0.81 nM
13 | CCC[C@H]1C(=O)N[C@@H]([C@@H](C)CC)C(=O)N(C)CC(=O)N(C)[C@H]2C/C=C\CCN(C2=O)[C@@H](Cc2ccc(C)cc2)C(=O)N(C)CC(=O)N[C@@H](CCc2ccc(C(F)(F)F)c(Cl)c2)C(=O)N2C[C@H](CC)C[C@H]2C(=O)NC2(CC(C)(C)C2)C(=O)N(C)[C@@H](C2CCCC2)C(=O)N(C)[C@H](C(=O)N(C)C)CC(=O)N1C [PP2212] | A (a compound having 10 or more and less than 20 is denoted as A) | B (a compound having 3 or more and less than 10 is denoted as B) | 0.34 nM
14 | CCC[C@H]1C(=O)N[C@@H]([C@@H](C)CC)C(=O)N(C)CC(=O)N(C)[C@H]2C/C=C\CCN(C2=O)[C@@H](Cc2ccc(C)cc2)C(=O)N(C)CC(=O)N[C@@H](CCc2ccc(C(F)(F)F)c(Cl)c2)C(=O)N2C[C@H](OCC)C[C@H]2C(=O)NC2(CC(C)(C)C2)C(=O)N(C)[C@@H](CC(C)C)C(=O)N(C)[C@H](C(=O)N(C)C)CC(=O)N1C [PP2224] | A (a compound having 10 or more and less than 20 is denoted as A) | A (a compound having 10 or more and less than 20 is denoted as A) | 0.38 nM
15 | CCC[C@H]1C(=O)N[C@@H]([C@@H](C)CC)C(=O)N(C)CC(=O)N(C)[C@H]2C/C=C\CCN(C2=O)[C@@H](Cc2ccc(C)cc2)C(=O)N(C)CC(=O)N[C@@H](CCc2ccc(C(F)(F)F)c(Cl)c2)C(=O)N2C[C@H](OCC)C[C@H]2C(=O)NC2(CC(C)(C)C2)C(=O)N(C)[C@@H](CC(F)(F)F)C(=O)N(C)[C@H](C(=O)N(C)C)CC(=O)N1C [PP2226] | A (a compound having 10 or more and less than 20 is denoted as A) | A (a compound having 10 or more and less than 20 is denoted as A) | 0.82 nM
16 | CCCOC[C@H]1C(=O)N[C@@H]([C@@H](C)CC)C(=O)N(C)CC(=O)N(C)[C@H]2C/C=C\CCN(C2=O)[C@@H](Cc2ccc(C)cc2)C(=O)N(C)CC(=O)N[C@@H](CCc2cc(F)c(C(F)(F)F)c(F)c2)C(=O)N2C[C@H](CCC)C[C@H]2C(=O)NC2(CCCC2)C(=O)N(C)[C@@H](C2CCCC2)C(=O)N(C)[C@H](C(=O)N(C)C)CC(=O)N1C [PP2229] | A (a compound having 10 or more and less than 20 is denoted as A) | A (a compound having 10 or more and less than 20 is denoted as A) | 0.38 nM
